This note sets out measurements from patent publication US4937235A, “3- or 4-substituted oxotremorine derivatives” (American Cyanamid Company, priority 1989, dated 1990).

In assay [1] the target is muscarinic cholinergic receptor. Nature of the assay: [3H] Quinuclidinyl Benzilate (3H-QNB) Binding Assay. On the set-up: species or system rat. Particulars: pH 7.4.
For assay [2] the target is unchanged. Nature of the assay: [3H]-Cis-methyldioxolane (3H-CD) Binding Assay (High Affinity). Particulars: rat cerebral cortex, 1.0 nM 3H-CD, 25° C., 120 minutes, pH 7.4.
Setting [3] is: rat cerebral cortex, 0.25 nM 3H-QNB, 25° C., 120 minutes.

Where a name gives a salt, the structure may show the parent alone.

For the compound `O=C1CCCN1CC#CCN1CCC(O)C1` (racemic) [(Racemic)-1-[4-(3-Hydroxy-1-pyrrolidinyl)-2-butynyl]-2-pyrrolidinone], the results for the IC50 in assay [1] and in assay [2] were 395 µM and 0.425 µM, respectively.
Regarding `CC(C)(C)[Si](C)(C)O[C@H]1CCN(CC#CCN2CCCCC2)C1=O` [(S)-3-[[(1,1-Dimethylethyl)dimethylsilyl]oxy]-1-[4-(1-piperidinyl)-2-butynyl]-2-pyrrolidinone], the IC50 in assay [1] came out at 24 µM; in assay [2] it was 0.161 µM.
For `O=C1C[C@H](O)CN1CC#CCN1CCCC1` [(S)-4-Hydroxy-1-[4-(1-pyrrolidinyl)-2-butynyl]-2-pyrrolidinone] the same measures were 270 µM and 4.91 µM.
For `CC(=O)S[C@H]1CCN(CC#CCN2CCCC2)C1=O` [(S)-S-(2-Oxo-1-[4-(1-pyrrolidinyl)-2-butynyl]-3-pyrrolidinyl]ethanethioic acid ester] the same measures were 4 µM and 0.07 µM.
For `O=C1[C@@H](O)CCN1CC#CCN1CCCCC1` [(S)-3-Hydroxy-1-[4-(1-piperidinyl)-2-butynyl]-2-pyrrolidinone] the same measures were 22 µM and 0.476 µM.
For the compound `CC(=O)S[C@H]1CCN(CC#CCN(C)C)C1=O` [(S)-S-[1-[4-(Dimethylamino)-2-butynyl]-2-oxo-3-pyrrolidinyl]ethanethioic acid ester], the IC50 worked out at 40 µM in assay [1] and 1.53 µM in assay [2].
As for `CC(=O)S[C@@H]1CCN(CC#CCN(C)C)C1=O` [(R)-S-[1-[4-(Dimethylamino)-2-butynyl]-2-oxo-3-pyrrolidinyl]ethanethioic acid ester], the IC50 in assay [1] came to 20 µM; in assay [2], 0.062 µM.
For `O=C1[C@H](SS[C@@H]2CCN(CC#CCN3CCCCC3)C2=O)CCN1CC#CCN1CCCCC1` [[R-(R*,R*)]-3,3'-dithiobis[1-[4-(1-piperidinyl)-2-butynyl]]-2-pyrrolidinone], the IC50 in assay [1] (setting [3]) came out at 9 µM; in assay [2], 1.83 µM.
With `CC(=O)N(C)CC#CCN1CCC(O)C1` (racemic) [(Racemic)-N-[4-(3-Hydroxy-1-pyrrolidinyl)-2-butynyl]-N-methyl acetamide], the values for the IC50 in assay [1] and in assay [2] were 1190 µM and 2.01 µM, respectively.
For `C[N+](C)(C)CC#CCN1CCCC1=O` [N,N,N-Trimethyl-4-(2-oxo-1-pyrrolidinyl)-2-butyn-1-aminium iodide, reference compound] the same measures were 18 µM and 0.003 µM.
For `CN(C)CC#CCN1CC[C@@H](S)C1=O` [(R)-1-[4-(Dimethylamino)-2-butynyl]-3-mercapto-2-pyrrolidinone, monohydrochloride] the same measures were 31 µM and 0.076 µM.
For `O=C1[C@H](S)CCN1CC#CCN1CCCC1` [(R)-3-Mercapto-1-[4-(1-pyrrolidinyl)-2-butynyl]-2-pyrrolidinone] the same measures were 1 µM and 0.007 µM.
Take `CC(=O)O[C@H]1CCN(CC#CCN(C)C)C1=O` [(S)-3-(Acetyloxy)-1-[4-(dimethylamino)-2-butynyl]-2-pyrrolidinone]: the IC50 in assay [1] was 1360 µM; in assay [2], 0.521 µM.
For `CO[C@H]1CCN(CC#CCN2CCCC2)C1=O` [(S)-3-Methoxy-1-[4-(1-pyrrolidinyl)-2-butynyl]-2-pyrrolidinone] the same measures were 433 µM and 1.17 µM.
For `CO[C@@H]1CCN(CC#CCN2CCCCC2)C1=O` [(R)-3-Methoxy-1-[4-(1-piperidinyl)-2-butynyl]-2-pyrrolidinone] the same measures were 459 µM and 28.1 µM.
For `O=C1C[C@H](O)CN1CC#CCN1CCCCC1` [(S)-4-Hydroxy-1-[4-(1-piperidinyl)-2-butynyl]-2-pyrrolidinone] the same measures were 200 µM and 36.1 µM.
`CC(=O)O[C@H]1CCN(CC#CCN2CCCCC2)C1=O` [(S)-3-(Acetyloxy)-1-[4-(1-piperidinyl)-2-butynyl]-2-pyrrolidinone]: the IC50 is 367 µM in assay [1] and 1.45 µM in assay [2].
For `CC(=O)O[C@@H]1CCN(CC#CCN2CCCCC2)C1=O` [(R)-3-(Acetyloxy)-1-[4-(1-piperidinyl)-2-butynyl]-2-pyrrolidinone] the same measures were 419 µM and 4.47 µM.
For `CC(=O)O[C@H]1CCN(CC#CCN2CCCC2)C1=O` [(S)-3-(Acetyloxy)-1-[4-(1-pyrrolidinyl)-2-butynyl]-2-pyrrolidinone] the same measures were 122 µM and 0.152 µM.
Turning to `CNC(=O)O[C@H]1CCN(CC#CCN2CCCCC2)C1=O` [(S)-3-[[(Methylamino)carbonyl]oxy]-1-[4-(1-piperidinyl)-2-butynyl]-2-pyrrolidinone], the IC50 is 744 µM in assay [1] (setting [3]) and 87 µM in assay [2].
For `CC(=O)S[C@H]1CCN(CC#CCN2CCCCC2)C1=O` [(S)-S-[2-Oxo-1-[4-(1-piperidinyl)-2-butynyl]-3-pyrrolidinyl]ethanethioic acid ester], the IC50 in assay [1] was determined as 14 µM; in assay [2] it was 2.43 µM.
With `CC(=O)O[C@@H]1CC(=O)N(CC#CCN2CCCCC2)C1` [(R)-4-(Acetyloxy)-1-[4-(1-piperidinyl)-2-butynyl]-2-pyrrolidinone], the IC50 in assay [1] was determined as 181 µM; in assay [2], 8.08 µM.
With `CN(C)CC#CCN1CC[C@@H](O)C1=O` [(R)-1-[4-(Dimethylamino)-2-butynyl]-3-hydroxy-2-pyrrolidinone], the figures for the IC50 in assay [1] and in assay [2] were 1470 µM and 0.578 µM, respectively.
In the case of `CO[C@H]1CCN(CC#CCN2CCCCC2)C1=O` [(S)-3-Methoxy-1-[4-(1-piperidinyl)-2-butynyl]-2-pyrrolidinone], the IC50 came to 673 µM in assay [1] and 33.1 µM in assay [2].
For `O=C1[C@@H](O)CCN1CC#CCN1CCCC1` [(S)-3-Hydroxy-1-[4-(1-pyrrolidinyl)-2-butynyl]-2-pyrrolidinone], the IC50 in assay [1] stood at 11 µM; in assay [2], 0.009 µM.
For `CC(=O)O[C@@H]1CCN(CC#CCN2CCCC2)C1=O` [(R)-3-(Acetyloxy)-1-[4-(1-pyrrolidinyl)-2-butynyl]-2-pyrrolidinone] the same measures were 231 µM and 0.547 µM.
For `CO[C@@H]1CCN(CC#CCN2CCCC2)C1=O` [(R)-3-Methoxy-1-[4-(1-pyrrolidinyl)-2-butynyl]-2-pyrrolidinone] the same measures were 283 µM and 1.97 µM.
As for `O=C1C[C@@H](O)CN1CC#CCN1CCCC1` [(R)-4-Hydroxy-1-[4-(1-pyrrolidinyl)-2-butynyl]-2-pyrrolidinone], the IC50 is 52 µM in assay [1] and 0.053 µM in assay [2].
For `CN(C)CC#CCN1C[C@@H](O)CC1=O`, the IC50 in assay [1] amounted to 1510 µM; in assay [2], 10.1 µM.
For `O=C1[C@H](O)CCN1CC#CCN1CCCC1` [(R)-3-Hydroxy-1-[4-(1-pyrrolidinyl)-2-butynyl]-2-pyrrolidinone] the same measures were 47 µM and 0.134 µM.
For `CC(=O)O[C@@H]1CC(=O)N(CC#CCN(C)C)C1` [(R)-4-(Acetyloxy)-1-[4-(dimethylamino)-2-butynyl]-2-pyrrolidinone] the same measures were 1780 µM and 11.5 µM.
For `O=C1[C@@H](S)CCN1CC#CCN1CCCCC1` [(S)-3-Mercapto-1-[4-(1-piperidinyl)-2-butynyl]-2-pyrrolidinone, monohydrochloride] the same measures were 2.5 µM and 0.955 µM.
Take `O=C1CCCN1CC#CCN1CCCCC1` [1-[4-(1-Piperidinyl)-2-butynyl]-2-pyrrolidinone, reference compound]: the IC50 in assay [1] turned out to be 2 µM; in assay [2], 0.077 µM.
On to `CC(=O)O[C@H]1CCN(CC#CCN2CCCC2=O)C1` [(S)-1-[4-[3-(Acetyloxy)-1-pyrrolidinyl]-2-butynyl]-2-pyrrolidinone], for which the IC50 is 2320 µM in assay [1] and 2.02 µM in assay [2].
For `CC(C)(C)[Si](C)(C)O[C@H]1CC(=O)N(CC#CCN2CCCC2)C1` [(S)-4-[[(1,1-Dimethylethyl)dimethylsilyl]oxy]-1-[4-(1-pyrrolidinyl)-2-butynyl]-2-pyrrolidinone] the same measures were 23 µM and 9.57 µM.
In assay [2], `CC(=O)S[C@@H]1CCN(CC#CCN2CCCCC2)C1=O` [(R)-S-[2-Oxo-1-(4-piperidinyl-2-butynyl)-3-pyrrolidinyl]ethanethioic acid ester] gave an IC50 of 0.946 µM.
For the compound `CC(=O)O[C@H]1CC(=O)N(CC#CCN(C)C)C1` [(S)-4-(Acetyloxy)-1-[4-(dimethylamino)-2-butynyl]-2-pyrrolidinone], the IC50 in assay [1] came out at 1350 µM; in assay [2], 41.9 µM.
Take `CC(=O)S[C@@H]1CCN(CC#CCN2CCCCC2)C1=O` [(R)-S-[2-Oxo-1-(4-piperidinyl-2-butynyl)-3-pyrrolidinyl]etha] [(R)-S-[2-Oxo-1-(4-piperidinyl-2-butynyl)-3-pyrrolidinyl]ethanethioic acid ester]: the IC50 in assay [1] stood at 91 µM.
With `CC(=O)O[C@H]1CC(=O)N(CC#CCN2CCCCC2)C1` [(S)-4-(Acetyloxy)-1-[4-(1-piperidinyl)-2-butynyl]-2-pyrrolidinone], the IC50 in assay [1] turned out to be 159 µM; in assay [2], 9.57 µM.
For the compound `O=C(O[C@@H]1CCN(CC#CCN2CCCC2)C1=O)c1ccc([N+](=O)[O-])cc1` [(R)-3-[(4-Nitrobenzoyl)oxy]-1-[4-(1-pyrrolidinyl)-2-butynyl]-2-pyrrolidinone], the IC50 in assay [1] (setting [3]) came out at 59 µM; in assay [2] it was 4.29 µM.
`O=C1[C@@H](S)CCN1CC#CCN1CCCC1` [(S)-3-Mercapto-1-[4-(1-pyrrolidinyl)-2-butynyl]-2-pyrrolidinone, monohydrochloride]: the IC50 came out at 2 µM in assay [1] and 0.048 µM in assay [2].
As for `CN(C)CC#CCN1CC[C@@H](OC(=O)c2ccc([N+](=O)[O-])cc2)C1=O` [(R)-1-[4-(Dimethylamino)-2-butynyl]-3-[(4-nitrobenzoyl)oxy]-2-pyrrolidinone], the values for the IC50 in assay [1] (setting [3]) and in assay [2] were 113 µM and 5.01 µM, respectively.
With `O=C1C(S)CCN1CC#CCN1CCCCC1` (stereo not drawn) [3-Mercapto-1-[4-(1-piperidinyl)-2-butynyl]-2-pyrrolidinone], the IC50 was found to be 11 µM in assay [1] and 0.587 µM in assay [2].
